The values that follow come from patent EP0393104B1, “MEASUREMENT OF PGE 2 (PROSTAGLANDIN E 2) LEVELS IN PATIENTS WITH CHRONIC INFLAMMATORY BOWEL DISEASE” (priority 1987, dated 1989).

Series [1] relates to PGE2. The experiment in a line: Equilibrium in vivo dialysis of rectum with radioimmunoassay of PGE2 (enema trial). On the set-up: species or system patients. The settings on record: median, enema groups irrespective of SAZ (+/-), SAZ line = no enema, with SAZ maintenance. Here is the method:
The study was carried out as a block-randomized, double-blind trial. Before entry, clinical disease activity was assessed, and equilibrium in vivo dialysis of rectum was performed before the assessment of endoscopic and histologic disease activity. […] Primary stratification was done for patients already on maintenance treatment with SAZ. At day 15 the equilibrium in vivo dialysis of rectum was repeated, and clinical, endoscopic, and histologic activities were reassessed. Patients in complete clinical and endoscopic remission discontinued treatment with enemas, whereas the remainder continued therapy for another 14 days. In all cases equilibrium in vivo dialysis of rectum and assessment of disease activity were repeated at day 29. Withdrawal criteria included intolerance to treatment or deterioration (severe disease, C3) requiring systemic glucocorticoids.
In vivo dialysis of rectum was performed after insertion of a 12-cm-long dialysis bag (volume 4 ml; Visking seamless cellulose tubing 8/32 filled with Rheomacrodex@; Pharmacia, Uppsala, Sweden) containing 10% dextran (mean mol wt 40,000) in saline into the emptied rectum. To obtain equilibrium with the fluid covering the surface of rectal mucosa, the dialysis bag was left for 4 h before its contents were emptied into a test tube, which was stored immediately at -20°C (rectal dialysate) for analysis within 2 wk.
Prostaglandin E2 was measured as previously described in detail (K. Bukhave, J. Rask-Madsen J, 'Prostaglandin E2 in jejunal fluids and its potential diagnostic value for selecting patients with indomethacin-sensitive diarrhoea', 1981 European Journal of Clinical Investigation, 11:191-7) by a radioimmunologic method validated by gas chromatography-mass spectrometry (K. Bukhave, K Green, J. Rask-Madsen, 'Comparison of radioimmunological determinations with gas chromatography mass spectrometry dosage', 1983 Biomedical Mass Spectrometry, 10:265-8). The method included purification by extraction with ethylacetate/cyclo- hexane (1:1) and chromatography on microcolumns of Sephadex LH-20 (Pharmacia AB, Sweden) before performing the radioimmunoassay itself on the eluate fraction containing PGE2.

Series [2] has as its system inactive ulcerative colitis. The series is described as follows: Double-blind maintenance treatment with SAZ or placebo after rise of PGE2: relapse/remission. Type of series: in vivo, patients. An excerpt: Patients fulfilling the following entry criteria were candidates for the study: (a) proven UC. […] Patients were considered in remission when symptom-free (i.e., stool frequency 2 x a day, without discharge of blood, pus, or mucus from the rectum), with normal sigmoidoscopic appearance, and with no significant inflammation on rectal biopsy.
(§1) Equilibrium in vivo dialysis of faeces as well as equilibrium in vivo dialysis of rectum were done in consenting patients fulfilling the entry criteria. Subsequently, SAZ treatment was stopped and the patients were observed free of medication. Evaluation of clinical disease activity, in addition to sigmoidoscopy with rectal biopsies for assessing endoscopic and histologic disease activity, were done at scheduled visits after two weeks, after two, six, and 12 months, and in-between, if indicated by recurrence of colitic symptoms. A relapse was defined as a recurrence of colitic symptoms accompanied by endoscopic signs of inflammation. If a relapse occurred the patient was withdrawn. At the scheduled visits also in vivo dialysis measurements were carried out. […]

The subject of series [3] is PGE2. The experiment in a line: Equilibrium in vivo dialysis of faeces with radioimmunoassay of PGE2 (SAZ withdrawal study). The conditions noted are these: individual patients randomized to SAZ (tablets 0.5 g; 2 tablets b.i.d.) after raised PGE2; first figure of the cell.
Description: as §1
Equilibrium in vivo dialysis of faeces was carried out as previously described, by pooling the contents of five swallowed dialysis bags following their intestinal transit (faecal dialysate). These dialysates were analyzed for concentrations of PGE2 (faecal PGE2).
(§2) Prostaglandin E2 was measured as previously described by a radioimmunological method validated by gas chromatograghy mass spectrometry. […]

The subject of series [4] is PGE2. The series is described as follows: Equilibrium in vivo dialysis of rectum with radioimmunoassay of PGE2 (SAZ withdrawal study). Also noted: species or system patients.
Description: as §1
Equilibrium in vivo dialysis of rectum was performed after insertion of a 12-cm-long dialysis bag into the emptied rectum as described above. The bag was left for four hours when it was removed and its contents (rectal dialysate) were analyzed for concentrations of PGE2 (rectal PGE2).
as §2

In the next series the test system is ulcerative colitis. The conditions noted are these: background statement; cited from earlier work.

Structures are written as SMILES. Where “and” joins values, the source holds several entries; their conditions need not be identical. Equal entries are not always repeated.

On to `O=C(O)c1cc(/N=N/c2ccc(S(=O)(=O)Nc3ccccn3)cc2)ccc1O` [SAZ, sulphasalazine], for which the “Concentrations of PGE2 in rectal lumen” value is given as 0.61(n=3) (0.47-2.2) ng/ml in the series on PGE2 [1] (clinical activity 0 (inactive)); 9.4(n=5) (0.35-36) ng/ml in the series on PGE2 [1] (clinical activity 1 (mild)); 8.5(n=9) (0.32-52) ng/ml in the series on PGE2 [1] (clinical activity 2-3 (moderate-severe)); 0.61(n=3) (0.47-22) ng/ml with PGE2 [1] (endoscopic activity 0 (inactive)); 3.2(n=3) (0.35-5.6) ng/ml in the series on PGE2 [1] (endoscopic activity 1 (mild)); 8.2(n=8) (0.32-36) ng/ml with PGE2 [1] (endoscopic activity 2 (moderate)). Moreover, the “Concentrations of PGE2 in rectal lumen” value in the series on PGE2 [1] (endoscopic activity 3 (severe)) was 36(n=3) (8.9-52) ng/ml. Besides, the “remission reinstated in relapsing patients by resuming SAZ alone” value in series [2] (SAZ 2-3 g/day orally, 14 relapsing patients) is given as “seven cases”. The “relapse within the six-month treatment period” value in series [2] (SAZ 2 g/day group n=6, placebo four of five, p<0.05, Fisher's exact test) is “none of the six patients”. Moreover, the “Fecal PGE2 levels 6 months after R” value in the series with PGE2 [3] is 0.20 ng/ml and 0.38 ng/ml and 0.43 ng/ml and 0.14/ND ng/ml and 0.32 ng/ml and 0.22 ng/ml. The PGE2 concentrations entry in the series with PGE2 [4] (SAZ group n=6, six months after randomisation) is given as “decreased toward control levels”. For the same molecule, the “Rectal PGE2 levels 6 months after R” value in the series with PGE2 [4] (individual patients randomized to SAZ (tablets 0.5 g; 2 tablets b.i.d.) after raised PGE2, second figure of the cell) is 0.64 ng/mL and 0.59 ng/mL and 2.11 ng/mL and 0.30 ng/mL and 0.26 ng/mL. Further, the “patients allergic to SAZ or in other ways intolerant of the drug” value in the series with ulcerative colitis is 10-20%.
